In US20230404933A1, “NON-CATIONIC SOFT POLYPHENOL NANOCAPSULES FOR EFFECTIVE […] […] OF SMALL INTERFERING RNA (siRNA) FOR CANCER TREATMENT” (Purdue Research Foundation, priority 2020, published 2023):

Test: siRNA stability in 50% FBS (gel electrophoresis)
Format: in vitro ADME, bovine
Experimental: siRNA-loading capacity of MSN^a was evaluated by the agarose gel retardation assay. siRNA-loaded MSNs (MSN^a/siRNA) complexes were prepared varying the MSN^a/siRNA weight ratio from 1/1 to 50/1. The complexes were loaded in 2% agarose gel and run in 0.5×TAE buffer at 80 V for 40 min. The gel was stained with ethidium bromide, and siRNA bands were detected at 302 nm using Azure C300 (Dublin, CA, USA). For stability testing, siRNA or NPs were challenged with 166 U/mL RNase for 15 min±8 mg/mL SDS for additional 2.5 h or 50% FBS for 1 h, both at 37° C., and analyzed by agarose gel electrophoresis. To quantify siRNA loaded in Nanosac (O/siRNA/pD), the NPs were dispersed in dilute HCl solution (pH 3) and incubated for 72 h. The samples were centrifuged at 16,000 rcf for 10 min, and the supernatant and pellet were separately analyzed by agarose gel electrophoresis.

siPD-L1: PD-L1 siRNA, sense 5′-CCCACAUAAAAAACAGUUGTT-3′ (SEQ ID NO: 1), antisense SEQ ID NO: 2 (antisense CAACUGUUUUUUAUGUGGGTT; chemistry not given here)
stability of siRNA in 50% FBS: completely degraded
